Measured values reported in patent publication US8008077B2, “Photochemical internalization for delivery of molecules into the cytosol” (priority 2000, dated 2011).

Key:
THX cells [1] = assay: Light-induced (PCI) transfection of THX cells with pEGFP-N1/polylysine complex, GFP expression by flow cytometry; format: cell-based, human; settings: for "light before" approach compared with "light after" approach, poly-L-lysine mediated transfection: photosensitiser 2 μg/ml TPPS2a or 75 μg/ml TPPS4, pEGFP-N1/PLL complex 4 h
Procedure: (§1) The human melanoma cell line THX was established from tumour tissue obtained from a patient treated for metastatic malignant melanoma at the Norwegian Radium Hospital (Aamdal et al., 1986., Int. J. Cancer, 37, 579), and grown in RMPI 1640 (Gibco-BRL) supplemented with 10% FCS (Gibco-BRL) and 2 mM glutamine (Gibco-BRL). The human colon carcinoma cell line HCT 116 was obtained from American Type Culture Collection (ATCC no. CCL-247) and grown in RPMI 1640 medium supplemented with 10% foetal calf serum, 100 U/ml penicillin, […] streptomycin and 2 mM glutamine (all Gibco BRL, Paisley, UK).
Two different light sources were used for treatment of the cells, both consisting of a bank of 4 fluorescent tubes. […]
(§2) The cells were trypsinized, centrifuged, resuspended in 400 μl of culture medium and filtered through a 50 μm mesh nylon filter. Then the cells were analyzed by a FACS-Calibur (Becton Dickinson) flow cytometer. […] Fluorescein-fluorescence (for example green Fluorescent protein (GFP)) was measured through a 510-530 nm filter after excitation with an argon laser (200 mW) tuned on 488 nm. AlPcS2a was measured through a 670 nm longpass filter after excitation with a diode laser (50 mW) tuned on 635 nm. […] The data were analysed with CELLQuest Software (Becton Dickinson).
THX cells were treated with 20 μg/ml AlPcS2a for 18 hours, washed and incubated in sensitizer-free medium for 3 hours followed by 1 hour incubation with 5 μg pEGFP-N1/polylysine complex before light exposure for 1, 2, 3 or 4 minutes. […] GFP expression was analysed by flow cytometry 48 hours after light exposure. […]
THX cells were treated with 20 μg/ml AlPcS2a for 18 hours, washed and incubated in sensitizer-free medium for 4 hours before 3 minutes of light treatment. […] GFP expression was analysed by flow cytometry 48 hours after light exposure. […]

HCT 116 cells [2] = assay: Light-induced (PCI) transfection of HCT 116 cells with pEGFP-N1/polylysine complex, GFP expression by flow cytometry; format: cell-based, human
Procedure: as §1
Two different light sources were used for treatment of the cells, both consisting of a bank of 4 fluorescent tubes. Cells treated with TPPS4, TPPS2a, and 3-THPP (Porphyrin Products, Logan, Utah) were exposed to blue light (model 3026; Appl. Photophysics, London, UK) with a light intensity reaching the cells of 1.5 mW/cm^2 while cells treated with AlPcS2a (Porphyrin Products, Logan, Utah) were exposed to red light (Philips TL 20W/09) filtered through a Cinemoid 35 filter with a light intensity reaching the cells of 1.35 mW/cm^2.
[…] The cells were treated with pEGFP-N1 polylysine complex for 4 hours immediately before or after exposure to light. […]
as §2
The cells were treated with pEGFP-N1/polylysine complex for 4 hours immediately before or after exposure to light as indicated on FIG. 2. The expression of GFP was measured by flow cytometry 2 days after the light exposure. […]

THX cells [3] = assay: Gelonin toxicity after photochemical treatment, protein synthesis by [3H]-leucine incorporation, THX cells; format: cell-based, human
Procedure: THX cells were incubated with 20 μg/ml AlPcS2a for 18 hours followed by 4 hours in sensitizer-free medium before exposure to light. The cells were either co-treated with AlPcS2a and 1 μg/ml gelonin, or gelonin (1 μg/ml) was added to the medium immediately after light exposure for 18 hours after which it was removed from the medium as indicated on FIG. 3. Protein synthesis was measured 24 hours after light exposure.
(§3) For the treatment with gelonin 25×10^3 cells per well were seeded out into 24-well plates (Nunc, Denmark). The next day 20 μg/ml AlPcS2a was added, and the cells were incubated for 18 h at 37° C. All the procedures after AlPcS2a addition were carried out in subdued light. For the “light before” strategy, the cells were washed from AlPcS2a and incubated in AlPcS2a-free medium for 4 h. Then the cells were exposed to light (as indicated in the figures) before the treatment with 1 μg/ml gelonin for 18 h. For the “light after” strategy the cells were co-incubated with 20 μg/ml AlPcS2a and 1 μg/ml gelonin for 18 h, and washed before exposure to light as indicated in the figure.
(§4) Non-illuminated cells were treated in a similar way except for illumination. The treated cells were washed once with culture medium and after addition of fresh medium incubated at 37° C. before further analysis. Inhibition of protein synthesis was assayed by [^3H]-leucine incorporation into protein 24 h after light exposure. Illumination was performed from a bench with four light tubes (Philips TL 20W/09) and a long pass filter with a cut off at 550-600 nm. The light intensity reaching the cells was 13.5 W/m^2.

HCT 116 cells [4] = assay: Gelonin toxicity after photochemical treatment, protein synthesis by [3H]-leucine incorporation, HCT 116 cells; format: cell-based, human; settings: 1 μg/ml gelonin 18 h
Procedure: as §3, §4

[5] = system: WiDr human adenocarcinoma; assay: PCI with gelonin for treatment of tumours in a mouse in vivo model; parameters: species or system Balb/c (nu/nu) mice; settings: for effect on tumour cure, in words: gelonin alone; for % TUMOUR-FREE MICE 30 DAYS AFTER ILLUMINATION / FRACTION TUMOUR-FREE MICE 30 DAYS AFTER ILLUMINATION: AlPcS2a 10 mg/kg i.p., gelonin 50 μg intratumorally where given
Procedure: Water and food was given ad libitum. All procedures involving mice were carried out in agreement with the protocols approved by the animal care committee at the Norwegian Radium Hospital, under control by the National Ethical Committee's guidelines on animal welfare. The mice were on average 20-25 g (5-8 weeks old) at the start of the experiments, and we used at least 5 mice per experiment group. The WiDr human adenocarcinoma used in the present study, was propagated by serial transplantation into the Balb/c (nu/nu) mice. The tumours were minced to homogeneity by a scalpel and 20 μl of the solution injected subcutaneously on the right hip of each mouse. The tumour size was measured two or three times per week by measuring two perpendicular diameters. Tumour volume was calculated using the following formula: V=(W^2×L)/2 where W is the width and L the length diameters of the tumours measured. Treatment
A stock solution of AlPcS2a was diluted to 1.25 mg/ml in PBS and injected intraperitoneally to a final concentration of 10 mg/kg when the tumours had reached a volume of approximately 100 mm^3. 48 h after the injection of AlPcS2a the tumours were exposed for 16 min to red light (see below). Immediately after light exposure gelonin (50 μg total amount in a 2 mg/ml solution, i.e. 25 μl) was injected intratumorally. The mice were kept in the dark for 1 week after the injection of AlPcS2a.
The tumours were illuminated with a 150 W halogen lamp (Xenophot HLX64640) filtered with a 580 nm long pass and a 700 nm short pass filter emitting 150 mW/cm^2. The animals were covered with aluminium foil except above the tumour area where a hole in the foil with a diameter 2 mm larger than the tumour diameter had been made. The tumours were exposed to 145 J/cm^2 of light. Tumour volumes were measured two or three times per week as described above. Mice were killed when the tumours reach a diameter of approximately 20 mm. The fraction of tumour-free mice 30 days after illumination was scored (Table 1), and the mean tumour volume in each treatment group was recorded (FIG. 25).

[6] = with light (145 J/cm^2; "light before" gelonin)

Oc1cccc(-c2c3nc(c(-c4cccc(O)c4)c4ccc([nH]4)c(-c4cccc(O)c4)c4nc(c(-c5cccc(O)c5)c5ccc2[nH]5)C=C4)C=C3)c1 [3-THPP]
increase in GFP expression with this photosensitizer (THX cells [1]; 0.25 μg/ml 3-THPP 18 h, light before 1 h pEGFP-N1/polylysine complex): only a minor increase in GFP expression

O=S(=O)(O)c1ccc(-c2c3nc(c(-c4ccc(S(=O)(=O)O)cc4)c4ccc([nH]4)c(-c4ccccc4)c4nc(c(-c5ccccc5)c5ccc2[nH]5)C=C4)C=C3)cc1 [TPPS2a, Tetraphenylporphine disulfonate]
"light before" approach compared with "light after" approach, poly-L-lysine mediated transfection (THX cells [1]): works as well as | "light before" approach compared with "light after" approach, poly-L-lysine mediated transfection (HCT 116 cells [2]; HCT 116 cells, TPPS2a, pEGFP-N1/PLL complex 4 h): works as well as

O=S(=O)(O)c1ccc(-c2c3nc(c(-c4ccc(S(=O)(=O)O)cc4)c4ccc([nH]4)c(-c4ccc(S(=O)(=O)O)cc4)c4nc(c(-c5ccc(S(=O)(=O)O)cc5)c5ccc2[nH]5)C=C4)C=C3)cc1 [TPPS4]
"light before" approach compared with "light after" approach, poly-L-lysine mediated transfection (THX cells [1]): works slightly better | "light before" approach compared with "light after" approach, poly-L-lysine mediated transfection (HCT 116 cells [2]; 75 μg/ml TPPS4, text prints THX cells, heading and FIG. 19 HCT 116 cells): works as well as

Gelonin: plant toxin which efficiently inhibits protein synthesis when it is present in the cytosol of cells
toxic effect of gelonin in itself without the PCI treatment (THX cells [3]; 1 μg/ml gelonin 18 h): no toxic effect | inhibition of protein synthesis compared with photochemical treatment in the absence of gelonin (THX cells [3]; 1 μg/ml gelonin before or after photochemical treatment (20 μg/ml AlPcS2a + light), 24 h after light): significantly greater inhibition of protein synthesis | "light before" strategy compared with "light after" method, inhibition of protein synthesis (THX cells [3]; 20 μg/ml AlPcS2a, 1 μg/ml gelonin 18 h): works better | inhibition of protein synthesis, "light before" relative to "light after" (THX cells [3]; highest light dose): about 3 fold | toxic effect of gelonin in itself without the PCI treatment (HCT 116 cells [4]): no toxic effect | "light before" strategy compared with "light after" method, inhibition of protein synthesis (HCT 116 cells [4]; 20 μg/ml AlPcS2a): works better | effect on tumour cure, in words ([5]; with additional light treatment, without AlPcS2a (group 4)): no effect | effect on tumour cure, in words ([5]; without light (group 3)): no effect | % TUMOUR-FREE MICE 30 DAYS AFTER ILLUMINATION [5, 6]: 0% | FRACTION TUMOUR-FREE MICE 30 DAYS AFTER ILLUMINATION [5, 6]: 0/5 | tumour growth (mean tumour volume) ([5]; without light): grew as fast as in animals given a placebo treatment | % TUMOUR-FREE MICE 30 DAYS AFTER ILLUMINATION ([5]; without light): 0% | FRACTION TUMOUR-FREE MICE 30 DAYS AFTER ILLUMINATION ([5]; without light): 0/8

poly-D-lysine
PCI with the "light before" protocol, poly-D-lysine as transfection agent (HCT 116 cells [2]; HCT 116 cells, complex with pEGFP-N1, variable irradiation times): works well
